# In PMC6261308 (Advanced functional materials, 2018):
# Assay: Acute toxicity: hemograms and serum biochemistry
# Format: in vivo, Balb/c mice
# Details: 2.5 mg kg^−1 of drug content three times a week
smiles,measurement,value
"COc1cccc2c1C(=O)c1c(O)c3c(c(O)c1C2=O)C[C@@](O)(/C(CO)=N/NC(=O)CCCCCN1C(=O)C=CC1=O)C[C@@H]3O[C@H]1C[C@H](N)[C@H](O)[C@H](C)O1 [aldox, aldoxorubicin]",serum creatine kinase (CK) level,increased CK level
